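The compound was tested at five concentrations on cells cultured in 96-well plates, with a 48-hour exposure period. The concentration for 50% growth inhibition is given as GI50. Definition used: TGI = concentration required for complete inhibition of growth.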
Assays:
Assay in all cases: growth of human tumour cells (NCI), 48 h
786-0 renal = test system: 786-0 renal
A498 renal = test system: A498 renal
A549 NSCLC = test system: A549 NSCLC
ACHN renal = test system: ACHN renal
CAKI-1 renal = test system: CAKI-1 renal
CCRF-CEM leukemia = test system: CCRF-CEM leukemia
COLO 205 colon = test system: COLO 205 colon
DU-145 prostate = test system: DU-145 prostate
EKVX NSCLC = test system: EKVX NSCLC
HCC-2998 colon = test system: HCC-2998 colon
HCT-116 colon = test system: HCT-116 colon
HCT-15 colon = test system: HCT-15 colon
HOP-62 NSCLC = test system: HOP-62 NSCLC
HOP-92 NSCLC = test system: HOP-92 NSCLC
HS 578T breast = test system: HS 578T breast
HT29 colon = test system: HT29 colon
K-562 leukemia = test system: K-562 leukemia
LOX IMVI melanoma = test system: LOX IMVI melanoma
M14 melanoma = test system: M14 melanoma
MALME-3M melanoma = test system: MALME-3M melanoma
MCF7 breast = test system: MCF7 breast
MDA-MB-231 breast = test system: MDA-MB-231 breast
MDA-MB-435 = test system: MDA-MB-435
MOLT-4 leukemia = test system: MOLT-4 leukemia
NCI-H226 lung = test system: NCI-H226 lung
NCI-H23 lung = test system: NCI-H23 lung
NCI-H460 lung = test system: NCI-H460 lung
NCI-H522 lung = test system: NCI-H522 lung
NCI/ADR-RES ovarian = test system: NCI/ADR-RES ovarian
OVCAR-4 ovarian = test system: OVCAR-4 ovarian
OVCAR-5 ovarian = test system: OVCAR-5 ovarian
OVCAR-8 ovarian = test system: OVCAR-8 ovarian
PC-3 prostate = test system: PC-3 prostate
RPMI-8226 leukemia = test system: RPMI-8226 leukemia
RXF 393 renal = test system: RXF 393 renal
SF-268 CNS = test system: SF-268 CNS
SF-295 CNS = test system: SF-295 CNS
SF-539 CNS = test system: SF-539 CNS
SK-MEL-2 melanoma = test system: SK-MEL-2 melanoma
SK-MEL-28 melanoma = test system: SK-MEL-28 melanoma
SK-MEL-5 melanoma = test system: SK-MEL-5 melanoma
SK-OV-3 ovarian = test system: SK-OV-3 ovarian
SN12C renal = test system: SN12C renal
SNB-19 CNS = test system: SNB-19 CNS
SNB-75 CNS = test system: SNB-75 CNS
SR leukemia = test system: SR leukemia
SW-620 colon = test system: SW-620 colon
T-47D breast = test system: T-47D breast
TK-10 renal = test system: TK-10 renal
U251 CNS = test system: U251 CNS
UACC-257 melanoma = test system: UACC-257 melanoma
UACC-62 melanoma = test system: UACC-62 melanoma
UO-31 renal = test system: UO-31 renal
IGROV1 ovarian = test system: IGROV1 ovarian
KM12 colon = test system: KM12 colon
OVCAR-3 ovarian = test system: OVCAR-3 ovarian

N#Cc1c(-c2ccccc2)cc(-c2ccccc2)n(CC(=O)NO)c1=O
GI50 (786-0 renal): 5.59 µM
TGI (786-0 renal): 28 µM
GI50 (A498 renal): 2.17 µM
TGI (A498 renal): 7.99 µM
GI50 (A549 NSCLC): 4.57 µM
TGI (A549 NSCLC): > 100 µM
GI50 (ACHN renal): 1.09 µM
TGI (ACHN renal): > 100 µM
GI50 (CAKI-1 renal): 3.4 µM
TGI (CAKI-1 renal): > 100 µM
GI50 (CCRF-CEM leukemia): 0.491 µM
TGI (CCRF-CEM leukemia): 3.07 µM
GI50 (COLO 205 colon): 5.62 µM
TGI (COLO 205 colon): 72.3 µM
GI50 (DU-145 prostate): 6.37 µM
TGI (DU-145 prostate): > 100 µM
GI50 (EKVX NSCLC): 3.45 µM
TGI (EKVX NSCLC): 97 µM
GI50 (HCC-2998 colon): 3.74 µM
TGI (HCC-2998 colon): 20.9 µM
GI50 (HCT-116 colon): 2.57 µM
TGI (HCT-116 colon): > 100 µM
GI50 (HCT-15 colon): 3.55 µM
TGI (HCT-15 colon): 28.8 µM
GI50 (HOP-62 NSCLC): 6.99 µM
TGI (HOP-62 NSCLC): 58.3 µM
GI50 (HOP-92 NSCLC): 2.15 µM
TGI (HOP-92 NSCLC): 8.17 µM
GI50 (HS 578T breast): 2 µM
TGI (HS 578T breast): 7.15 µM
GI50 (HT29 colon): 3.07 µM
TGI (HT29 colon): 12.2 µM
GI50 (K-562 leukemia): 1.8 µM
TGI (K-562 leukemia): 4.67 µM
GI50 (LOX IMVI melanoma): 0.176 µM
TGI (LOX IMVI melanoma): 0.333 µM
GI50 (M14 melanoma): 4.16 µM
TGI (M14 melanoma): 19.1 µM
GI50 (MALME-3M melanoma): 3 µM
TGI (MALME-3M melanoma): 27.3 µM
GI50 (MCF7 breast): 1.45 µM
TGI (MCF7 breast): 3.82 µM
GI50 (MDA-MB-231 breast): 4.75 µM
TGI (MDA-MB-231 breast): 68 µM
GI50 (MDA-MB-435): 3.03 µM
TGI (MDA-MB-435): > 100 µM
GI50 (MOLT-4 leukemia): 1.7 µM
TGI (MOLT-4 leukemia): 4.92 µM
GI50 (NCI-H226 lung): 13.7 µM
TGI (NCI-H226 lung): 57.5 µM
GI50 (NCI-H23 lung): 3.58 µM
TGI (NCI-H23 lung): 81.4 µM
GI50 (NCI-H460 lung): 3.02 µM
TGI (NCI-H460 lung): > 100 µM
GI50 (NCI-H522 lung): 0.427 µM
TGI (NCI-H522 lung): 1.82 µM
GI50 (NCI/ADR-RES ovarian): 3.41 µM
TGI (NCI/ADR-RES ovarian): > 100 µM
GI50 (OVCAR-4 ovarian): 3.53 µM
TGI (OVCAR-4 ovarian): > 100 µM
GI50 (OVCAR-5 ovarian): 11.1 µM
TGI (OVCAR-5 ovarian): > 100 µM
GI50 (OVCAR-8 ovarian): 8.02 µM
TGI (OVCAR-8 ovarian): > 100 µM
GI50 (PC-3 prostate): 2.25 µM
TGI (PC-3 prostate): 14 µM
GI50 (RPMI-8226 leukemia): 1.35 µM
TGI (RPMI-8226 leukemia): 4.77 µM
GI50 (RXF 393 renal): 1.61 µM
TGI (RXF 393 renal): 5.92 µM
GI50 (SF-268 CNS): 3.66 µM
TGI (SF-268 CNS): 94.3 µM
GI50 (SF-295 CNS): 7.47 µM
TGI (SF-295 CNS): 33.8 µM
GI50 (SF-539 CNS): 3.83 µM
TGI (SF-539 CNS): 25.7 µM
GI50 (SK-MEL-2 melanoma): 2.85 µM
TGI (SK-MEL-2 melanoma): 9.13 µM
GI50 (SK-MEL-28 melanoma): 6.7 µM
TGI (SK-MEL-28 melanoma): 77.4 µM
GI50 (SK-MEL-5 melanoma): 1.93 µM
TGI (SK-MEL-5 melanoma): 4.71 µM
GI50 (SK-OV-3 ovarian): 6.24 µM
TGI (SK-OV-3 ovarian): 53.5 µM
GI50 (SN12C renal): 4.27 µM
TGI (SN12C renal): > 100 µM
GI50 (SNB-19 CNS): 7.09 µM
TGI (SNB-19 CNS): 73.3 µM
GI50 (SNB-75 CNS): 1.61 µM
TGI (SNB-75 CNS): 6.36 µM
GI50 (SR leukemia): 0.593 µM
TGI (SR leukemia): 4.48 µM
GI50 (SW-620 colon): 8.87 µM
TGI (SW-620 colon): > 100 µM
GI50 (T-47D breast): 1.41 µM
TGI (T-47D breast): 6.88 µM
GI50 (TK-10 renal): 5.92 µM
TGI (TK-10 renal): > 100 µM
GI50 (U251 CNS): 4.91 µM
TGI (U251 CNS): 86.3 µM
GI50 (UACC-257 melanoma): 10.8 µM
TGI (UACC-257 melanoma): 37.4 µM
GI50 (UACC-62 melanoma): 2.25 µM
TGI (UACC-62 melanoma): 6.01 µM
GI50 (UO-31 renal): 1.84 µM
TGI (UO-31 renal): 9.75 µM

CNc1ccc(C(=O)CC(O)CCC(C)C2OC(=O)CC(O)CC(=O)CC(O)CC(O)CC(O)CC(O)CC3(O)CC(O)C(C(=O)NCCN(C)C)C(CC(OC4OC(C)C(O)C(NC(=O)CN5CCN(CCO)CC5)C4O)/C=C/C=C/C=C/C=C\C=C/C=C/C=C/C2C)O3)cc1 (stereo not drawn)
GI50 (786-0 renal): 0.197 µM
TGI (786-0 renal): > 50 µM
GI50 (ACHN renal): 1.12 µM
TGI (ACHN renal): 2.44 µM
GI50 (CAKI-1 renal): 0.192 µM
TGI (CAKI-1 renal): > 18.7 µM
GI50 (COLO 205 colon): 0.508 µM
TGI (COLO 205 colon): 1.81 µM
GI50 (DU-145 prostate): 0.161 µM
TGI (DU-145 prostate): 0.61 µM
GI50 (HCC-2998 colon): 1.91 µM
TGI (HCC-2998 colon): 4.26 µM
GI50 (HCT-116 colon): 0.546 µM
TGI (HCT-116 colon): 2.13 µM
GI50 (HCT-15 colon): 2.92 µM
TGI (HCT-15 colon): > 50 µM
GI50 (HOP-62 NSCLC): 1.17 µM
TGI (HOP-62 NSCLC): 6.21 µM
TGI (HOP-92 NSCLC): > 50 µM
GI50 (HS 578T breast): > 50 µM
TGI (HS 578T breast): > 50 µM
GI50 (HT29 colon): 0.931 µM
TGI (HT29 colon): > 11.6 µM
GI50 (IGROV1 ovarian): > 50 µM
TGI (IGROV1 ovarian): > 50 µM
GI50 (K-562 leukemia): 0.163 µM
TGI (K-562 leukemia): 1.35 µM
GI50 (KM12 colon): 0.165 µM
TGI (KM12 colon): 0.49 µM
GI50 (M14 melanoma): 0.494 µM
TGI (M14 melanoma): 1.51 µM
GI50 (MALME-3M melanoma): 0.0966 µM
TGI (MALME-3M melanoma): 0.3 µM
GI50 (MCF7 breast): 0.219 µM
TGI (MCF7 breast): > 50 µM
GI50 (MDA-MB-231 breast): 0.832 µM
TGI (MDA-MB-231 breast): 2.91 µM
GI50 (MDA-MB-435): 0.692 µM
TGI (MDA-MB-435): 1.91 µM
GI50 (MOLT-4 leukemia): 0.424 µM
TGI (MOLT-4 leukemia): > 21.4 µM
GI50 (NCI-H23 lung): 14.8 µM
TGI (NCI-H23 lung): 47.3 µM
GI50 (NCI-H460 lung): 0.242 µM
TGI (NCI-H460 lung): 1.74 µM
GI50 (NCI/ADR-RES ovarian): 2.07 µM
TGI (NCI/ADR-RES ovarian): 14.2 µM
GI50 (OVCAR-3 ovarian): 0.768 µM
TGI (OVCAR-3 ovarian): 3.03 µM
GI50 (OVCAR-4 ovarian): 1.65 µM
TGI (OVCAR-4 ovarian): > 17.4 µM
GI50 (OVCAR-5 ovarian): 3.59 µM
TGI (OVCAR-5 ovarian): > 30.6 µM
GI50 (OVCAR-8 ovarian): 2.5 µM
TGI (OVCAR-8 ovarian): > 50 µM
GI50 (PC-3 prostate): 0.296 µM
TGI (PC-3 prostate): > 50 µM
GI50 (RPMI-8226 leukemia): > 50 µM
TGI (RPMI-8226 leukemia): > 50 µM
GI50 (RXF 393 renal): > 50 µM
TGI (RXF 393 renal): > 50 µM
GI50 (SF-268 CNS): 0.193 µM
TGI (SF-268 CNS): > 50 µM
GI50 (SF-295 CNS): 0.706 µM
TGI (SF-295 CNS): 1.64 µM
GI50 (SK-MEL-2 melanoma): 19.9 µM
TGI (SK-MEL-2 melanoma): > 50 µM
GI50 (SK-OV-3 ovarian): 2.38 µM
TGI (SK-OV-3 ovarian): > 50 µM
GI50 (SNB-19 CNS): 1.62 µM
TGI (SNB-19 CNS): > 50 µM
GI50 (SNB-75 CNS): > 22.3 µM
TGI (SNB-75 CNS): > 50 µM
GI50 (SW-620 colon): 0.728 µM
TGI (SW-620 colon): > 50 µM
GI50 (T-47D breast): 1.08 µM
TGI (T-47D breast): > 50 µM
GI50 (TK-10 renal): 0.143 µM
GI50 (UACC-257 melanoma): 0.935 µM
TGI (UACC-257 melanoma): 2.79 µM
GI50 (UO-31 renal): 2.17 µM
TGI (UO-31 renal): > 50 µM
